Patent US10343992B2, “1-cyano-pyrrolidine compounds as USP30 inhibitors” (MISSION THERAPEUTICS LIMITED, priority 2015, dated 2019)

Target: USP30 (Homo sapiens (Human), UniProt Q70CQ3)
Experiment: USP30 biochemical FP or FI IC50 assay
Settings: read-out: IC50 range
Method in brief: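 Human USP30 preincubated 30 min at room temperature with compound (8-point series, 100 µM top final) in Tris pH 7.5, Tween 20, BSA, 5 mM β-mercaptoethanol, in duplicate. FP format: 50 nM TAMRA-peptide–isopeptide-ubiquitin substrate, ex 540/em 590. FI format: 100 nM ubiquitin-rhodamine 110, ex 487/em 535. Both read at 0 and after 2 h at room temperature.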

Chain of USP30 (Q70CQ3 57-517): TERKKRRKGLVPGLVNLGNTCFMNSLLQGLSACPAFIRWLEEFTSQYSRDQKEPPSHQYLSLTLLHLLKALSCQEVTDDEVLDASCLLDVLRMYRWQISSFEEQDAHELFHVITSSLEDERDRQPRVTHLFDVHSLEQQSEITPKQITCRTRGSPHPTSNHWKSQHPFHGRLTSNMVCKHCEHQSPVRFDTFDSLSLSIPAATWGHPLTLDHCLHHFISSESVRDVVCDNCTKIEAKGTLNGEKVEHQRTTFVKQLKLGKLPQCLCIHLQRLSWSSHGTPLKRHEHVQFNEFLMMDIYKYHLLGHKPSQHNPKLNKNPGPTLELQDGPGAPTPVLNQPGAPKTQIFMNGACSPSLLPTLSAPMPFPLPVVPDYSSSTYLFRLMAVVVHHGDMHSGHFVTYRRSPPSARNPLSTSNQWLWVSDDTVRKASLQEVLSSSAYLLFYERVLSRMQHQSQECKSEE

SMILES | IC50
Cn1cc(-c2ccc3[nH]nc(C(=O)N[C@@H]4CCN(C#N)C4)c3c2)cn1 [Example 126, (R)-N-(1-cyanopyrrolidin-3-yl)-5-(1-methyl-1H-pyrazol-4-yl)-1H-indazole-3-carboxamide] | < 100 nM
Cn1cc(-c2ccc3c(C(=O)N[C@@H]4CCN(C#N)C4)n[nH]c3c2)cn1 [Example 127, (R)-N-(1-cyanopyrrolidin-3-yl)-6-(1-methyl-1H-pyrazol-4-yl)-1H-indazole-3-carboxamide] | 100 to 1000 nM
Cc1noc(C)c1-c1ccc2cc(C(=O)N[C@@H]3CCN(C#N)C3)[nH]c2c1 [Example 128, (R)-N-(1-cyanopyrrolidin-3-yl)-6-(3,5-dimethylisoxazol-4-yl)-1H-indole-2-carboxamide] | < 100 nM
Cc1nn(C)cc1-c1ccc2cc(C(=O)N[C@@H]3CCN(C#N)C3)[nH]c2c1 [Example 129, (R)-N-(1-cyanopyrrolidin-3-yl)-6-(1,3-dimethyl-1H-pyrazol-4-yl)-1H-indole-2-carboxamide] | < 100 nM
Cn1cc(-c2ccc3[nH]c(C(=O)N[C@@H]4CCN(C#N)C4)cc3c2)cn1 [Example 130, (R)-N-(1-cyanopyrrolidin-3-yl)-5-(1-methyl-1H-pyrazol-4-yl)-1H-indole-2-carboxamide] | < 100 nM
CCn1cc(-c2cnc(C(=O)N[C@@H]3CCN(C#N)C3)cc2C)cn1 [Example 132, (R)-N-(1-cyanopyrrolidin-3-yl)-5-(1-ethyl-1H-pyrazol-4-yl)-4-methylpicolinamide] | 100 to 1000 nM
N#CN1CC[C@@H](NC(=O)N2CC(Oc3ccccc3)C2)C1 [Example 133, (R)-N-(1-cyanopyrrolidin-3-yl)-3-phenoxyazetidine-1-carboxamide] | 100 to 1000 nM
N#CN1CC[C@@H](NC(=O)N2CC(c3nc4ccccc4[nH]3)C2)C1 [Example 134, (R)-3-(1H-benzo[d]imidazol-2-yl)-N-(1-cyanopyrrolidin-3-yl)azetidine-1-carboxamide] | 100 to 1000 nM
N#CN1CC[C@@H](NC(=O)N2CCN(c3ccccc3)CC2)C1 [Example 135, (R)-N-(1-cyanopyrrolidin-3-yl)-4-phenylpiperazine-1-carboxamide] | 100 to 1000 nM
N#CN1CC[C@@H](NC(=O)N2CCOC(c3ccccc3)C2)C1 (stereo partly drawn) [Example 136, N-((R)-1-cyanopyrrolidin-3-yl)-2-phenylmorpholine-4-carboxamide] | 100 to 1000 nM
N#CN1CC[C@@H](NC(=O)N2CCCN(Cc3c(F)cccc3Cl)CC2)C1 [Example 137, (R)-4-(2-chloro-6-fluorobenzyl)-N-(1-cyanopyrrolidin-3-yl)-1,4-diazepane-1-carboxamide] | 100 to 1000 nM
N#CN1CC[C@@H](NC(=O)N2CCCN(Cc3ccccc3)CC2)C1 [Example 138, (R)-4-benzyl-N-(1-cyanopyrrolidin-3-yl)-1,4-diazepane-1-carboxamide] | 100 to 1000 nM
N#CN1CC[C@@H](NC(=O)N2CCc3c([nH]c4ccccc34)C2)C1 [Example 139, (R)-N-(1-cyanopyrrolidin-3-yl)-1,3,4,9-tetrahydro-2H-pyrido[3,4-b]indole-2-carboxamide] | 100 to 1000 nM
C[C@@H]1CN(c2cc(C(=O)N[C@@H]3CCN(C#N)C3)c(F)cn2)C[C@H](C)O1 [Example 140, N-((R)-1-cyanopyrrolidin-3-yl)-2-((2S,6R)-2,6-dimethylmorpholino)-5-fluoroisonicotinamide] | 100 to 1000 nM
N#CN1CC[C@@H](NC(=O)c2cc(N3Cc4ccccc4C3)ncc2F)C1 [Example 141, (R)-N-(1-cyanopyrrolidin-3-yl)-5-fluoro-2-(isoindolin-2-yl)isonicotinamide] | 100 to 1000 nM
N#CN1CC[C@@H](NC(=O)c2ccc(Nc3ncccn3)c(F)c2)C1 [Example 142, (R)-N-(1-cyanopyrrolidin-3-yl)-3-fluoro-4-(pyrimidin-2-ylamino)benzamide] | < 100 nM
N#CN1CC[C@@H](NC(=O)c2ccc(N3CCCC3)cc2F)C1 [Example 143, (R)-N-(1-cyanopyrrolidin-3-yl)-2-fluoro-4-(pyrrolidin-1-yl)benzamide] | < 100 nM
